Article PMC5809559, “DYRK1A inhibition and cognitive rescue in a Down syndrome mouse model are induced by new fluoro-DANDY derivatives” (Scientific Reports, 2018)
pIC50: −log10 of the molar value.

Key:
[1] = Bioavailability in plasma after i.p. injection (UHPLC-MS/MS); format: in vivo; conditions: mouse, ip, WT mice, 20 mg/kg i.p.
Experimental: Before undertaking behavioral studies in Ts65Dn mice, the bioavailability of F-DANDY 5a in plasma after peripheral (intraperitoneal – i.p.) injection in mice was determined. […] The sample preparation and analytical protocol were adapted from Bonneau et al.[38],[39]. […] A 30 min interval was thus selected between time of injection and behavioral assessment.
All plasma and brain homogenate extracts were analyzed by an ultra-high performance liquid chromatography (UHPLC) system coupled to a triple-quadrupole mass spectrometer (Dionex Ultimate 3000 RSLC system coupled to a TSQ Vantage EMR, Thermo Scientific, Les Ulis, France). UHPLC separation was performed using a C18 column (HSS T3, 2.1 mm × 150 mm, 1.7 μm, Waters, Guyancourt, France) equipped with a guard column (HSS T3, 2.1 mm × 5 mm, 1.7 μm, Waters, Guyancourt, France) and maintained at 40 °C. The mobile phases were water, 0.1% formic acid (A) and acetonitrile (B). […] A washing step in acetonitrile/isopropanol was added to limit carryover problems. Injection volume was 4 µL and the autosampler was maintained at 6 °C. Ionization was performed with a heated electrospray ionization source in positive mode. The source parameters were set as follows: spray voltage 3350 V, vaporizer temperature 250 °C, sheath gas (N2) pressure 55 psi, auxiliary gas pressure (N2) 25 psi, capillary temperature 350 °C. Analysis was performed under the Selected Reaction Monitoring (SRM) mode using several transitions for each compound at optimized collision energies (see Table SI2 and Figure SI1). […] Data acquisition was performed using ThermoScientific Xcalibur 2.1 software system. All samples were analyzed in triplicate.
Two compounds, V[34] […] Limit of quantification (LOQ) was determined as the lowest point of the calibration curve at 1.6 pg/μL. […] Limit of quantification (LOQ) was determined as the lowest point of the calibration curve at 1.6 pg/mg. […]
Using an optimized Ultra Performance Liquid Chromatography with tandem mass spectrometry (UPLC-MS/MS), compound 5a was subsequently quantified in plasma. […] All samples were analyzed in triplicate.

[2] = biological target: T1, DYRK1A catalytic domain (DYRK1A-ΔC) (Rattus norvegicus, UniProt Q63470); assay: In vitro DYRK1A kinase inhibition, UFLC assay with fluorescent peptide substrate; format: biochemical; conditions: IC50, in vitro inhibition of DYRK1A, 3,5-diaryl-7-azaindoles 5a-5g, Fig. 5
T1 construct: The cDNA coding for the catalytic domain (residues 1-502) of rat DYRK1A; 6xHis; made in house; host or cells: E. coli BL21(DE3), pET28

## Oc1ccc(-c2cnc3[nH]cc(-c4ccc(F)cc4)c3c2)cc1O [Compound 5a, 3-(4-fluorophenyl)-5-(3,4-dihydroxyphenyl)-1H-pyrrolo[2,3-b]pyridine]
[1]; after slow decrease over 2.5 hours, read-out: plasma level
  concentration at 2.5 h: ~50 ng/mL
[1]; t = 4.4 min
  concentration at 4.4 min: 312 ng/mL
[1]; t = 5.4 min
  concentration at 5.4 min: 236 ng/mL
[2]
  pIC50: 7.68
